Data: PubChem BioAssay AID248 (DTP/NCI, 2004)
Values joined by “and” are separate entries in the source; they are usually repeats but may differ in a detail not shown here. Equal values may be shown once. Toxic doses and inconclusive results are not listed.

System: L1210 leukemia ip in BDF1 mice, survival T/C
Test: NCI In Vivo Anticancer Drug Screen. Data for tumor model L1210 Leukemia (intraperitoneal) in B6D2F1 (BDF1) mice
Conditions: endpoint: mean survival time, higher = longer survival
Method in brief: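 Read-out is survival time, reported as the treated-group measurement over the vehicle-control measurement.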

[1] = dose: 100.0 mg/kg/injection, schedule: Q04DX002 (ip), vehicle: saline with Tween-80
[2] = dose: 200.0 mg/kg/injection, schedule: Q04DX002 (ip), vehicle: saline with Tween-80
[3] = dose: 100.0 mg/kg/injection, schedule: Q04DX003 (ip), vehicle: saline with Tween-80
[4] = dose: 200.0 mg/kg/injection, schedule: Q04DX003 (ip), vehicle: saline with Tween-80
[5] = dose: 400.0 mg/kg/injection, schedule: Q04DX003 (ip), vehicle: saline with Tween-80
[6] = dose: 100.0 mg/kg/injection, schedule: Q01DX001 (ip), vehicle: saline
[7] = dose: 200.0 mg/kg/injection, schedule: Q01DX001 (ip), vehicle: saline
[8] = dose: 400.0 mg/kg/injection, schedule: Q01DX001 (ip), vehicle: saline
[9] = dose: 100.0 mg/kg/injection, schedule: Q01DX001 (ip), vehicle: saline with Tween-80
[10] = dose: 200.0 mg/kg/injection, schedule: Q01DX001 (ip), vehicle: saline with Tween-80
[11] = dose: 400.0 mg/kg/injection, schedule: Q01DX001 (ip), vehicle: saline with Tween-80
[12] = dose: 50.0 mg/kg/injection, schedule: Q01DX001 (ip), vehicle: saline with Tween-80
[13] = dose: 100.0 mg/kg/injection, schedule: Q01DX009 (ip), vehicle: saline with Tween-80
[14] = dose: 200.0 mg/kg/injection, schedule: Q01DX009 (ip), vehicle: saline with Tween-80
[15] = dose: 100.0 mg/kg/injection, schedule: Q01DX009 (ip), vehicle: Klucel (hydroxypropylcellulose) (HPC)
[16] = dose: 200.0 mg/kg/injection, schedule: Q01DX009 (ip), vehicle: Klucel (hydroxypropylcellulose) (HPC)
[17] = dose: 100.0 mg/kg/injection, schedule: Q04DX002 (ip), vehicle: Klucel (hydroxypropylcellulose) (HPC)
[18] = dose: 200.0 mg/kg/injection, schedule: Q04DX002 (ip), vehicle: Klucel (hydroxypropylcellulose) (HPC)

Nc1nc(N)c2cc(CCc3ccc(C(=O)NC(CCC(=O)O)C(=O)O)cc3)ccc2n1 (stereo not drawn)
T/C (dose: 39.0 micrograms/kg/injection, schedule: Q01DX009 (ip), vehicle: Klucel (hydroxypropylcellulose) (HPC)): 111 % of control | T/C (dose: 78.0 micrograms/kg/injection, schedule: Q01DX009 (ip), vehicle: Klucel (hydroxypropylcellulose) (HPC)): 117 % of control | T/C (dose: 156.0 micrograms/kg/injection, schedule: Q01DX009 (ip), vehicle: Klucel (hydroxypropylcellulose) (HPC)): 117 % of control | T/C (dose: 625.0 micrograms/kg/injection, schedule: Q01DX009 (ip), vehicle: Klucel (hydroxypropylcellulose) (HPC)): 170 % of control

O=C(Nc1cccc(Cl)c1)Oc1ccc(S(=O)(=O)F)cc1Cl
T/C [1]: 94 % of control | T/C [2]: 91 % of control

O=C(C[n+]1ccccc1CO)c1ccc(-c2ccc(C(=O)C[n+]3ccccc3CO)cc2)cc1
T/C (dose: 0.15 mg/kg/injection, schedule: Q04DX003 (ip), vehicle: saline): 97 % of control | T/C (dose: 0.3 mg/kg/injection, schedule: Q04DX003 (ip), vehicle: saline): 96 % of control | T/C (dose: 0.6 mg/kg/injection, schedule: Q04DX003 (ip), vehicle: saline): 100 % of control

COc1ccc2c(c1)CN(S(=O)(=O)c1ccc(C)cc1)CCC2=O
T/C (dose: 100.0 mg/kg/injection, schedule: Q01DX009 (ip), vehicle: saline): 102 % of control | T/C (dose: 200.0 mg/kg/injection, schedule: Q01DX009 (ip), vehicle: saline): 98 % of control | T/C (dose: 400.0 mg/kg/injection, schedule: Q01DX009 (ip), vehicle: saline): 95 % of control

COC(=O)CNC(=O)C(C)NC(=O)OCc1ccccc1 (stereo not drawn)
T/C [3]: 102 % of control | T/C [4]: 98 % of control | T/C [5]: 100 % of control

C1=CC2OC1c1ccccc12
T/C (dose: 50.0 mg/kg/injection, schedule: Q01DX001 (ip), vehicle: carboxymethylcellulose (CMC)): 95 % of control | T/C (dose: 100.0 mg/kg/injection, schedule: Q01DX001 (ip), vehicle: carboxymethylcellulose (CMC)): 92 % of control | T/C (dose: 200.0 mg/kg/injection, schedule: Q01DX001 (ip), vehicle: carboxymethylcellulose (CMC)): 106 % of control | T/C (dose: 400.0 mg/kg/injection, schedule: Q01DX001 (ip), vehicle: carboxymethylcellulose (CMC)): 97 % of control

NCC(O)c1ccc(O)cc1 (stereo not drawn)
T/C (dose: 50.0 mg/kg/injection, schedule: Q04DX003 (ip), vehicle: saline): 101 % of control | T/C [6]: 93 % of control | T/C (dose: 100.0 mg/kg/injection, schedule: Q04DX003 (ip), vehicle: saline): 97 % of control | T/C [7]: 93 % of control | T/C (dose: 200.0 mg/kg/injection, schedule: Q04DX003 (ip), vehicle: saline): 98 % of control | T/C [8]: 101 % of control

O=C1C=CC2C=CC1C(C(=O)O)C2C(=O)O (stereo not drawn) (tested in a mixture with another compound)
T/C [9]: 95 % of control | T/C [10]: 90 % of control | T/C [11]: 92 % of control

Cc1ccc2cccc(CC(=O)NN)c2c1
T/C [12]: 92 % of control | T/C (dose: 50.0 mg/kg/injection, schedule: Q01DX009 (ip), vehicle: saline with Tween-80): 102 % of control | T/C (dose: 50.0 mg/kg/injection, schedule: Q04DX003 (ip), vehicle: saline with Tween-80): 92 % of control | T/C [9]: 92 % of control | T/C [13]: 102 % of control | T/C [1]: 93 % of control | T/C [3]: 90 % of control | T/C [10]: 103 % of control | T/C [14]: 111 % of control | T/C [2]: 98 % of control | T/C [4]: 89 % of control

Cc1cc(Br)c2c(c1O)C13CCN(C)C(C2)C1CC(Br)C(=O)C3 (stereo not drawn)
T/C (dose: 1.56 mg/kg/injection, schedule: Q01DX001 (ip), vehicle: saline): 97 % of control | T/C (dose: 3.12 mg/kg/injection, schedule: Q01DX001 (ip), vehicle: saline): 100 % of control | T/C (dose: 6.25 mg/kg/injection, schedule: Q01DX001 (ip), vehicle: saline): 105 % of control | T/C (dose: 12.5 mg/kg/injection, schedule: Q01DX001 (ip), vehicle: saline): 108 % of control

COc1ccc(C(=S)N2CCN(c3cccc(Cl)c3)CC2)cc1
T/C [6]: 96 % of control | T/C [7]: 91 % of control | T/C [8]: 91 % of control

CC1=CC(=O)CC(=O)O1
T/C (dose: 100.0 mg/kg/injection, schedule: Q01DX001 (ip), vehicle: Klucel (hydroxypropylcellulose) (HPC)): 103 % of control | T/C [15]: 96 % of control | T/C (dose: 100.0 mg/kg/injection, schedule: Q04DX003 (ip), vehicle: Klucel (hydroxypropylcellulose) (HPC)): 97 % of control | T/C (dose: 200.0 mg/kg/injection, schedule: Q01DX001 (ip), vehicle: Klucel (hydroxypropylcellulose) (HPC)): 108 % of control | T/C [16]: 94 % of control | T/C (dose: 200.0 mg/kg/injection, schedule: Q04DX003 (ip), vehicle: Klucel (hydroxypropylcellulose) (HPC)): 101 % of control | T/C (dose: 400.0 mg/kg/injection, schedule: Q01DX001 (ip), vehicle: Klucel (hydroxypropylcellulose) (HPC)): 103 % of control | T/C (dose: 400.0 mg/kg/injection, schedule: Q04DX003 (ip), vehicle: Klucel (hydroxypropylcellulose) (HPC)): 95 % of control

CNC(=O)C1C(c2ccccc2)C1c1ccccc1 (stereo not drawn)
T/C [17]: 102 % of control | T/C [18]: 97 % of control | T/C (dose: 400.0 mg/kg/injection, schedule: Q04DX002 (ip), vehicle: Klucel (hydroxypropylcellulose) (HPC)): 94 % of control

NC1=NC=NCN1c1ccc(N)cc1
T/C (dose: 25.0 mg/kg/injection, schedule: Q01DX001 (ip), vehicle: saline with Tween-80): 96 % of control | T/C [12]: 102 % of control | T/C [9]: 104 % of control

CC(=O)OC/N=[N+](/C)[O-]
T/C (dose: 2.0 mg/kg/injection, schedule: Q01DX Z (ip), vehicle: saline): 98 % of control | T/C (dose: 4.0 mg/kg/injection, schedule: Q01DX Z (ip), vehicle: saline): 110 % of control | T/C (dose: 6.0 mg/kg/injection, schedule: Q01DX Z (ip), vehicle: saline): 97 % of control | T/C (dose: 8.0 mg/kg/injection, schedule: Q01DX Z (ip), vehicle: saline): 104 % of control | T/C (dose: 12.5 mg/kg/injection, schedule: Q01DX Z (ip), vehicle: saline): 91 % of control

COC(=O)N(C1CCCCC1)C1CCCCC1
T/C [15]: 97 % of control | T/C [16]: 96 % of control | T/C (dose: 400.0 mg/kg/injection, schedule: Q01DX009 (ip), vehicle: Klucel (hydroxypropylcellulose) (HPC)): 100 % of control

O=C(NC(=S)Nc1cccc(O)c1)c1cccc([N+](=O)[O-])c1
T/C [9]: 93 % of control | T/C [13]: 94 % of control and 87 % of control | T/C [1]: 98 % of control and 101 % of control | T/C [3]: 89 % of control | T/C [10]: 97 % of control | T/C [14]: 93 % of control and 105 % of control | T/C [2]: 96 % of control and 109 % of control | T/C [4]: 109 % of control | T/C [11]: 103 % of control | T/C (dose: 400.0 mg/kg/injection, schedule: Q01DX009 (ip), vehicle: saline with Tween-80): 94 % of control | T/C (dose: 400.0 mg/kg/injection, schedule: Q04DX002 (ip), vehicle: saline with Tween-80): 101 % of control | T/C [5]: 94 % of control

CC1(C)CN1P(=O)(Oc1ccc([N+](=O)[O-])cc1)N1CC1(C)C (stereo not drawn)
T/C [17]: 110 % of control | T/C [18]: 108 % of control

c1ccc(CNCCNCc2ccccn2)nc1
T/C (dose: 1.25 mg/kg/injection, schedule: Q04DX002 (ip), vehicle: saline): 106 % of control | T/C (dose: 2.5 mg/kg/injection, schedule: Q04DX002 (ip), vehicle: saline): 113 % of control | T/C (dose: 5.0 mg/kg/injection, schedule: Q04DX002 (ip), vehicle: saline): 106 % of control | T/C (dose: 10.0 mg/kg/injection, schedule: Q04DX002 (ip), vehicle: saline): 102 % of control

O=C(O)c1ccccc1-c1c2ccc(=O)c(O)c-2oc2c(O)c(O)ccc12
T/C (dose: 10.0 mg/kg/injection, schedule: Q04DX003 (ip), vehicle: other): 99 % of control | T/C (dose: 20.0 mg/kg/injection, schedule: Q04DX003 (ip), vehicle: other): 94 % of control | T/C (dose: 40.0 mg/kg/injection, schedule: Q04DX003 (ip), vehicle: other): 98 % of control | T/C (dose: 50.0 mg/kg/injection, schedule: Q04DX003 (ip), vehicle: other): 112 % of control | T/C (dose: 80.0 mg/kg/injection, schedule: Q04DX003 (ip), vehicle: other): 89 % of control | T/C (dose: 100.0 mg/kg/injection, schedule: Q04DX003 (ip), vehicle: other): 104 % of control | T/C (dose: 200.0 mg/kg/injection, schedule: Q04DX003 (ip), vehicle: other): 124 % of control
